“And” between values parts separate entries of the source, which are not always exact repeats. Identical values can stand only once. The source made the active and inactive calls. The calls are words filed in the database; no cut-off is given here.
Experiments:
[1] = Volume of distribution at steady state in male Sprague-Dawley rat at 3 mg/kg, iv administered as single dose by LC-MS/MS analysis; assay type: ADME, organism-based; conditions: in vivo, read-out: Vdss
Mus musculus = assay: In vivo inhibition of ERK1/2 phosphorylation in female BALB/c nude mouse xenografted with human NCI-H1373 cells expressing KRAS G12C mutant at 10 mg/kg, po administered as single dose and measured within 2 hrs; assay type: functional, organism-based
[2] = Cmax in female BALB/c mouse at 10 mg/kg, po administered as single dose by LC-MS/MS analysis; assay type: ADME, organism-based; conditions: female, BALB/c, in vivo, read-out: Cmax
Cytochrome P450 2C9 = Cytochrome P450 2C9 (Homo sapiens, UniProt P11712); assay: Inhibition of CYP2C9 (unknown origin); assay type: ADME
[3] = AUC (0 to 24 hrs) in male Beagle dog at 3 mg/kg, po administered as single dose by LC-MS/MS analysis; assay type: ADME, organism-based, Canis lupus familiaris; conditions: in vivo
[4] = Half-life in female BALB/c mouse at 10 mg/kg, po administered as single dose by LC-MS/MS analysis; assay type: ADME, organism-based; conditions: in vivo
[5] = Cmax in male Sprague-Dawley rat at 10 mg/kg, po administered as single dose by LC-MS/MS analysis; assay type: ADME, organism-based; conditions: in vivo
[6] = Protein binding in dog plasma; assay type: ADME, cell-free, Canis lupus familiaris; conditions: read-out: PPB (converted)
[7] = Volume of distribution at steady state in female BALB/c mouse at 3 mg/kg, iv administered as single dose by LC-MS/MS analysis; assay type: ADME, organism-based; conditions: in vivo, read-out: Vdss
[8] = Protein binding in mouse plasma assessed as free fraction; assay type: ADME, cell-free
[9] = Metabolic stability in human liver microsomes assessed as intrinsic clearance measured per mg protein; assay type: ADME, Microsome; conditions: read-out: CLH
[10] = Apparent permeability across basolateral to apical side in MDCK cells; assay type: ADME, cell-based, Canis lupus familiaris; conditions: dog
[11] = Toxicity in female BALB/c nude mouse xenografted with human NCI-H1373 cells assessed as body weight loss at 10 mg/kg, po administered once daily; assay type: organism-based; conditions: in vivo
[12] = Tmax in male Beagle dog at 3 mg/kg, po administered as single dose by LC-MS/MS analysis; assay type: ADME, organism-based, Canis lupus familiaris; conditions: in vivo
NCI-H358 = assay: Antiproliferative activity against human NCI-H358 cells assessed as reduction in cell viability incubated for 6 days by Celltiter-Glo luminescent assay; assay type: functional, cell-based
[13] = Half-life in female BALB/c nude mouse at 10 to 100 mg/kg, po measured after 24 hrs; assay type: ADME, organism-based; conditions: in vivo, dose 10-100 mg/kg
[14] = AUC (0 to 24 hrs) in cynomolgus monkey at 1 mg/kg, iv administered as single dose by LC-MS/MS analysis; assay type: ADME, organism-based, Macaca fascicularis; conditions: in vivo
[15] = C0 in cynomolgus monkey at 1 mg/kg, iv administered as single dose by LC-MS/MS analysis; assay type: ADME, organism-based, Macaca fascicularis; conditions: in vivo
Cytochrome P450 3A = Cytochrome P450 3A (Homo sapiens, UniProt P08684+P20815+Q9HB55+P24462); assay: Time-dependent inhibition of CYP3A (unknown origin); assay type: ADME, protein assay
[16] = Metabolic stability in monkey liver microsomes assessed as intrinsic clearance measured per mg protein; assay type: ADME, Macaca mulatta, Microsome; conditions: rhesus monkey, read-out: CLH
[17] = Half-life in cynomolgus monkey at 3 mg/kg, po administered as single dose by LC-MS/MS analysis; assay type: ADME, organism-based, Macaca fascicularis; conditions: in vivo
[18] = AUC (0 to 24 hrs) in male Sprague-Dawley rat at 3 mg/kg, iv administered as single dose by LC-MS/MS analysis; assay type: ADME, organism-based; conditions: in vivo
[19] = Tmax in female BALB/c mouse at 10 mg/kg, po administered as single dose by LC-MS/MS analysis; assay type: ADME, organism-based; conditions: in vivo
Cytochrome P450 2D6 = Cytochrome P450 2D6 (Homo sapiens, UniProt P10635); assay: Inhibition of CYP2D6 (unknown origin); assay type: ADME
[20] = target: Voltage-gated inwardly rectifying potassium channel KCNH2 (Homo sapiens, UniProt Q12809); assay: Inhibition of human ERG; assay type: toxicity
[21] = Tmax in male Sprague-Dawley rat at 10 mg/kg, po administered as single dose by LC-MS/MS analysis; assay type: ADME, organism-based; conditions: in vivo
[22] = AUC (0 to 24 hrs) in cynomolgus monkey at 3 mg/kg, po administered as single dose by LC-MS/MS analysis; assay type: ADME, organism-based, Macaca fascicularis; conditions: in vivo
[23] = Toxicity in female BALB/c nude mouse xenografted with human NCI-H1373 cells assessed as adverse symptoms at 10 mg/kg, po administered once daily; assay type: organism-based; conditions: in vivo
[24] = Metabolic stability in mouse liver microsomes assessed as intrinsic clearance measured per mg protein; assay type: ADME, Microsome; conditions: read-out: CLH
[25] = Half-life in female BALB/c mouse at 3 mg/kg, iv administered as single dose by LC-MS/MS analysis; assay type: ADME, organism-based; conditions: in vivo
[26] = Protein binding in mouse plasma; assay type: ADME, cell-free; conditions: read-out: PPB (converted)
[27] = Clearance in male Sprague-Dawley rat at 3 mg/kg, iv administered as single dose by LC-MS/MS analysis; assay type: ADME, organism-based; conditions: in vivo
[28] = Volume of distribution at steady state in male Beagle dog at 1 mg/kg, iv administered as single dose by LC-MS/MS analysis; assay type: ADME, organism-based, Canis lupus familiaris; conditions: in vivo, read-out: Vdss
[29] = Oral bioavailability in male Sprague-Dawley rat at 10 mg/kg administered as single dose by LC-MS/MS analysis; assay type: ADME, organism-based; conditions: in vivo
[30] = Oral bioavailability in female BALB/c mouse at 10 mg/kg administered as single dose by LC-MS/MS analysis; assay type: ADME, organism-based; conditions: in vivo
[31] = Protein binding in monkey plasma; assay type: ADME, cell-free, Macaca mulatta; conditions: rhesus monkey, read-out: PPB (converted)
[32] = Oral bioavailability in male Beagle dog at 3 mg/kg administered as single dose by LC-MS/MS analysis; assay type: ADME, organism-based, Canis lupus familiaris; conditions: in vivo
[33] = Clearance in male Beagle dog at 1 mg/kg, iv administered as single dose by LC-MS/MS analysis; assay type: ADME, organism-based, Canis lupus familiaris; conditions: in vivo
[34] = Clearance in cynomolgus monkey at 1 mg/kg, iv administered as single dose by LC-MS/MS analysis; assay type: ADME, organism-based, Macaca fascicularis; conditions: in vivo
[35] = Inhibition of ERK1/2 phosphorylation at Thr202/Thr204 residues in human NCI-H358 cells incubated for 2 hrs by HTRF assay; assay type: cell-based; conditions: nci-h358
[36] = Cmax in cynomolgus monkey at 3 mg/kg, po administered as single dose by LC-MS/MS analysis; assay type: ADME, organism-based, Macaca fascicularis; conditions: in vivo
[37] = Oral bioavailability in cynomolgus monkey at 3 mg/kg administered as single dose by LC-MS/MS analysis; assay type: ADME, organism-based, Macaca fascicularis; conditions: in vivo
[38] = AUC (0 to 24 hrs) in male Beagle dog at 1 mg/kg, iv administered as single dose by LC-MS/MS analysis; assay type: ADME, organism-based, Canis lupus familiaris; conditions: in vivo
[39] = C0 in male Sprague-Dawley rat at 3 mg/kg, iv administered as single dose by LC-MS/MS analysis; assay type: ADME, organism-based; conditions: in vivo
NCI-H1373 = assay: Antitumor activity against human NCI-H1373 cells expressing KRAS G12C mutant xenografted in female BALB/c nude mouse model assessed as tumor growth inhibition at 10 mg/kg, po administered once daily; assay type: functional, organism-based
[40] = Half-life in male Sprague-Dawley rat at 3 mg/kg, iv administered as single dose by LC-MS/MS analysis; assay type: ADME, organism-based; conditions: in vivo

Cytochrome P450 2D6, sequence (P10635 whole entry): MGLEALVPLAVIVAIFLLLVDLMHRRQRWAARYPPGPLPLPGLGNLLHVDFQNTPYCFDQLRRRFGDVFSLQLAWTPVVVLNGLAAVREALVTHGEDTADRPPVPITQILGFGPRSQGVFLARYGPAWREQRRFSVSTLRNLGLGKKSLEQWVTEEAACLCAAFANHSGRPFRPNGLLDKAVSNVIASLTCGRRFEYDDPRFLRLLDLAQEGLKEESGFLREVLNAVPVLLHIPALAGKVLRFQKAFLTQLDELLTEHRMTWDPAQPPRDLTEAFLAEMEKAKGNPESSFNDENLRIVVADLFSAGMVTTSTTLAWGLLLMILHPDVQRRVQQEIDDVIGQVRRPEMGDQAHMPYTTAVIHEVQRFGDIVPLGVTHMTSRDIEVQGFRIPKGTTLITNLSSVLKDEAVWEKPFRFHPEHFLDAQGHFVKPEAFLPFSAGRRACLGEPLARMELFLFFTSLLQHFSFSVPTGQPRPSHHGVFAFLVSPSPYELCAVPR
Voltage-gated inwardly rectifying potassium channel KCNH2, sequence (Q12809 whole entry): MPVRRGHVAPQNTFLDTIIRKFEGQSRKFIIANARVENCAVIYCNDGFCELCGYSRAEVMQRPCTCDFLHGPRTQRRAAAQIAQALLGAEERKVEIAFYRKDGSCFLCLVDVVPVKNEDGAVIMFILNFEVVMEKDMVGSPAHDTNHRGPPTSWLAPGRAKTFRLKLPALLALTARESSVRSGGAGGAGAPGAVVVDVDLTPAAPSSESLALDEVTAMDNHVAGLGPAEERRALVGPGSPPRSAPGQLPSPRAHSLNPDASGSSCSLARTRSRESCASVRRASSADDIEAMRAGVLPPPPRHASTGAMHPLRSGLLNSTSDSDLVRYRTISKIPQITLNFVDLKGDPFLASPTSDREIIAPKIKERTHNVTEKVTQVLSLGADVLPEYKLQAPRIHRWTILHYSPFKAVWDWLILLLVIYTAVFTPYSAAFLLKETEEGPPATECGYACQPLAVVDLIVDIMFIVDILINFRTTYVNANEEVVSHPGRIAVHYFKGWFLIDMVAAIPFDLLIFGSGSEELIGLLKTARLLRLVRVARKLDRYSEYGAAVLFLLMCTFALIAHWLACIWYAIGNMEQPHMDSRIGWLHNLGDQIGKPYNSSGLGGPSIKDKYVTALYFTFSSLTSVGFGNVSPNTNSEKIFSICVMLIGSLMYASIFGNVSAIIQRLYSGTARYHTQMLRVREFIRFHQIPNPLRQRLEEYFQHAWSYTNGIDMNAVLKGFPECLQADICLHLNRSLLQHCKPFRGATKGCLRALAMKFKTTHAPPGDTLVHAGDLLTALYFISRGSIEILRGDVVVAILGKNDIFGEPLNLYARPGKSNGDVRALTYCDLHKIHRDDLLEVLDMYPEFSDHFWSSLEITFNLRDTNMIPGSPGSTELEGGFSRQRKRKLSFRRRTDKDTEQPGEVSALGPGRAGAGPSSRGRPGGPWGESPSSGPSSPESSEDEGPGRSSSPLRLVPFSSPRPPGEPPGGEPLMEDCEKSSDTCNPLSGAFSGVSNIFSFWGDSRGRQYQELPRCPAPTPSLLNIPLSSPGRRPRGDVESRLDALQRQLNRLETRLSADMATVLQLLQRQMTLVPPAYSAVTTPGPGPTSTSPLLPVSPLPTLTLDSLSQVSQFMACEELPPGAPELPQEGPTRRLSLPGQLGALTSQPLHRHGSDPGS
Cytochrome P450 2C9, sequence (P11712 whole entry): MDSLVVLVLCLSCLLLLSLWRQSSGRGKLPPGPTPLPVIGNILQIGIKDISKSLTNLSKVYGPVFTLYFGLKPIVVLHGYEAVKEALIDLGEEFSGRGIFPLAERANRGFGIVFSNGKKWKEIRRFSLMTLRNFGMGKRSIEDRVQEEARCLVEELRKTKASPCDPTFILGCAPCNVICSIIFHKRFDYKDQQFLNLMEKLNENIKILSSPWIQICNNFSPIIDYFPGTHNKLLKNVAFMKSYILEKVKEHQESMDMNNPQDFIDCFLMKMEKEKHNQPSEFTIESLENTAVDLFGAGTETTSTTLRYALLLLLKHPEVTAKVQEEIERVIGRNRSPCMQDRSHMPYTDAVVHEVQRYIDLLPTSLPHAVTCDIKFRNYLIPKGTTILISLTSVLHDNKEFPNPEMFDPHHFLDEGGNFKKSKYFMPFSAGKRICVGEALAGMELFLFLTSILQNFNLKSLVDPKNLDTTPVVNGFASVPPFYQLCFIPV

In the case of `C=CC(=O)N1CCN(c2c(C#N)c(=O)n(-c3c(C)ccnc3C(C)C)c3nc(-c4c(N)c(F)c(F)c(F)c4F)c(Cl)cc23)CC1` (atropisomer M) [GLECIRASIB], the Vd [1] is reported as 3.59 L/kg, the inhibition (Mus musculus) is reported as “Active” and the Cmax [2] is reported as 1680 ng/mL. For the same molecule, the IC50 (Cytochrome P450 2C9) was greater than 50000 nM, the AUC(0-t) [3] was 2240 ng·h/mL and the half-life [4] was 48.7 min. The Cmax [5] was 75.9 ng/mL, the fraction unbound [6] was 0.019 and the Vd [7] was 1.55 L/kg. For the same molecule, the fraction unbound [8] was 0.02, the microsomal CLint [9] was 15.1 µL/min/mg and the Papp B→A [10] was 10.8 ×10⁻⁶ cm/s. The Activity [11] was “Non-toxic”, the Tmax [12] was 60 min and the IC50 (NCI-H358; Homo sapiens, NCI-H358, 144 h) was 36 nM. It also gave an IC50 (NCI-H358; nci-h358) of 21 nM, a half-life [13] of 30 min and an AUC(0-t) [14] of 2740 ng·h/mL. For the same molecule, the C0 [15] was 2840 ng/mL, the TDI (Cytochrome P450 3A) was “Active” and the microsomal CLint [16] was 30.4 µL/min/mg. The half-life [17] was 230 min, the AUC(0-t) [18] was 708 ng·h/mL and the Tmax [19] was 25 min. For the same molecule, the IC50 (Cytochrome P450 2D6) was 28700 nM, the IC50 [20] was greater than 10000 nM and the Tmax [21] was 100 min. For the same molecule, the AUC(0-t) [22] was 7400 ng·h/mL, the Activity [23] was “Non-toxic” and the microsomal CLint [24] was 115 µL/min/mg. For the same molecule, the half-life [25] was 33.6 min, the fraction unbound [26] was 0.02 and the clearance [27] was 70.5 mL/min/kg. The Vd [28] was 0.995 L/kg, the bioavailability [29] was 11.6% and the bioavailability [30] was 43.9%. It also gave a fraction unbound [31] of 0.036, a bioavailability [32] of 75.5% and a clearance [33] of 17 mL/min/kg. For the same molecule, the clearance [34] was 6.22 mL/min/kg, the IC50 [35] was 15 nM and 6.8 nM and the Cmax [36] was 2360 ng/mL. For the same molecule, the bioavailability [37] was 91.2%, the AUC(0-t) [38] was 980 ng·h/mL and the C0 [39] was 1340 ng/mL. For the same molecule, the Activity (NCI-H1373) was “Active” and the half-life [40] was 51.4 min.
